Experiments:
CK2α = CK2α localization by confocal immunofluorescence / western blot, H1299 cells; format: cell-based, human; details: NatD knockdown H1299 cells
Source text: Fig. 7 Downregulation of Nt-acetylation of histone H4 facilitates nuclear accumulation of CK2α and its binding to histone H4 in lung cancer cells. a Representative confocal scanning images of CK2α localization in Scr and H1299 cells (left panel). The staining intensity of CK2α was quantified by software ImageJ from NIH (right diagram). Scale bars, 5 μm. […] Equal peptide biotinylated on C terminus is shown by dot blot analysis with streptavidin (middle panel). […] IgG served as a negative control. Results are shown as mean ± s.d. from three independent experiments; two-tailed Student’s t-test, **P < 0.01 compared with the indicated control. g Quantitative real-time PCR analysis of mRNA levels of CK2α and Slug normalized to GAPDH in Scr and NatD-KD H1299 cells in the absence or presence of siRNA to CK2α. NC, siRNA mimics negative control. […]
For immunofluorescence assays, cells were fixed with 4% formaldehyde for 5 min at room temperature. […] Sub-cellular distribution of CK2α was analyzed by confocal scanning microscopy (Olympus FV10i). The relative intracellular distribution of CK2α in each experimental sample was calculated as the nuclear to total (cytoplasmic + nuclear) ratio by measuring the intensity of the signals in each cellular compartment with the aid of ImageJ software (NIH). […]

Slug promoter = Slug promoter luciferase reporter assay, H1299 cells; format: cell-based, human; details: 1155-bp Slug promoter in pGL3-basic, beta-galactosidase normalized
Experimental: Response to the reviewers' comments:
Q1. In relation to Query 11 where Slug promoter analyses were requested to functionally test the consequences of epigenetic changes, the authors argue “it is less […]
promoter activity in cytoplasm where functional nucleosomes (composed of histone and DNA) are not formed”. I disagree with the authors’ response since it would invalidate all promoter assays performed in many different situations in which the action of “nuclear” transcription factors is analyzed with exogenous promoters that need to be translocated to the nucleus for functional activity. Thus, although I agree that the epigenetic changes might not be easily reproduced in the exogenous promoters, the authors should made the effort to perform this requested experimental […]
We agree with the reviewer that the experiment should be performed. Therefore, we cloned a 1155-bp Slug promoter fragment [Ref: Morita T et al., J Cell Biol. 2007, 179(5): 1027-1042] into the pGL3-basic luciferase vector (sequence confirmed by DNA sequencing). The activity of Slug promoter in the different situations (control […]
NatD) were analyzed; pSV-beta-Gal plasmid expressing beta-galactosidase was used as the normalization control according to Cold Spring Harbor Protocol [Smale ST.
Beta-galactosidase assay. Cold Spring Harb Protoc 2010: pdb prot5423]. As the […]

Substance: NatD-KD2: Human NatD shRNA KD2: 5′-GGTTGAATGTCTCCATTGA-3′, lentiviral (shRNA lentiviral)
- CK2α in the cytoplasm (western blot) (CK2α): no detectable levels
- CK2α localized in the nucleus (CK2α; more than 30 cells (Scr: about 70%)): ~100%
- Slug promoter luciferase activity (Slug promoter): no significant changes in luciferase activity
